Measured values published in patent US9938272B2, “Hydrazine compound as blood coagulation factor Xa inhibitor” (NORTH CHINA PHARMACEUTICAL COMPANY., LTD., priority 2014, dated 2018).
pKi: −log10 of the molar value.

Experiments:
[1] = cited from earlier work
human Factor Xa = human Factor Xa (Homo sapiens (Human), UniProt P00742); test: Human factor Xa chromogenic assay; format: biochemical; settings: substrate S-2222, read-out: hfXa Ki
rat Factor Xa = rat Factor Xa (Rattus norvegicus (Rat), UniProt Q63207); test: Rat factor Xa chromogenic assay; format: biochemical; settings: substrate S-2222, read-out: rfXa Ki
Chain of rat Factor Xa (Q63207 232-482): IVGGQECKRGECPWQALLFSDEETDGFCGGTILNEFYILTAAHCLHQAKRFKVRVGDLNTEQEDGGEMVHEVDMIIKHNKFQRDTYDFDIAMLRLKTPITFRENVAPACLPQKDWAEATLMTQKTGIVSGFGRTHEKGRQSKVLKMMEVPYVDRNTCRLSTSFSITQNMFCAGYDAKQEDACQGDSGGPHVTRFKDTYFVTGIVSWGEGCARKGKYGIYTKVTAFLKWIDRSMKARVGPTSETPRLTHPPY
Chain of rat Factor Xa (Q63207 41-180): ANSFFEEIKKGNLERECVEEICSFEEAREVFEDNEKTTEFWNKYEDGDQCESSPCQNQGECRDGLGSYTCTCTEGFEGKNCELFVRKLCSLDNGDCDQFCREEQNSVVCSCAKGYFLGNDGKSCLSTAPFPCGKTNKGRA

human thrombin = human thrombin (Homo sapiens (Human), UniProt P00734); test: Human thrombin assay; format: biochemical; settings: substrate S-2238
human trypsin = human trypsin (Homo sapiens, UniProt P07477); test: Human trypsin assay; format: biochemical; settings: substrate S-2222
prothrombinase = prothrombinase (Homo sapiens (Human), UniProt P00742); test: Prothrombinase assay (thrombin generation); format: biochemical; settings: human factor Xa with human platelets, prothrombin, substrate S-2238
Chain of prothrombinase (P00742 235-488): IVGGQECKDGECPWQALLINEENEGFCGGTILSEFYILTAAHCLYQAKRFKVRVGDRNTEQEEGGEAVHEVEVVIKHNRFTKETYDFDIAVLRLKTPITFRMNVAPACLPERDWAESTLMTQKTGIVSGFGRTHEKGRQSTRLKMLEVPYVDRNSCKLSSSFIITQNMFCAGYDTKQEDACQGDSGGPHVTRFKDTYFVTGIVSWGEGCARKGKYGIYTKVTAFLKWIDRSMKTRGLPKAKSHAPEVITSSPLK
Chain of prothrombinase (P00742 41-179): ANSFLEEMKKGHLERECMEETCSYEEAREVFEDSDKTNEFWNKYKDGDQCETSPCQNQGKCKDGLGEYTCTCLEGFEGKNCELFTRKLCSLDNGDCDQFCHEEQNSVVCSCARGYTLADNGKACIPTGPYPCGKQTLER
Chain of prothrombinase (P12259 29-737 partner): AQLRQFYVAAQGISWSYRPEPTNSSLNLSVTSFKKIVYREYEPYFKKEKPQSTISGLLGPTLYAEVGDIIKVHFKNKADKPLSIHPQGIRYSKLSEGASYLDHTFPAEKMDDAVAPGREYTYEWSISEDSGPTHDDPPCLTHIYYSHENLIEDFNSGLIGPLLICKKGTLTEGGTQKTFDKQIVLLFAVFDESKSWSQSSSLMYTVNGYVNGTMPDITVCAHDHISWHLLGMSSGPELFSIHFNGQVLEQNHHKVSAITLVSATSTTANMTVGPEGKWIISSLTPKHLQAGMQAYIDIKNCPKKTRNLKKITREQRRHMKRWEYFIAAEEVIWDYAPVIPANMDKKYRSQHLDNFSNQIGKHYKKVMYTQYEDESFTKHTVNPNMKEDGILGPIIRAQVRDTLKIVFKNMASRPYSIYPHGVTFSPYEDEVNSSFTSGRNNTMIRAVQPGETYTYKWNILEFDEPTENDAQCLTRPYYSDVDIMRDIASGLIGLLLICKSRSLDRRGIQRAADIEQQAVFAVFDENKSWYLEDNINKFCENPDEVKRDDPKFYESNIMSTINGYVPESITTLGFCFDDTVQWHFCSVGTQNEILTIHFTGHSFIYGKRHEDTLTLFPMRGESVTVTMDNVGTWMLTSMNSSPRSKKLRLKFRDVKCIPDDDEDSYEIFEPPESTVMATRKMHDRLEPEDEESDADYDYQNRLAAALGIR
Chain of prothrombinase (P12259 1574-2224 partner): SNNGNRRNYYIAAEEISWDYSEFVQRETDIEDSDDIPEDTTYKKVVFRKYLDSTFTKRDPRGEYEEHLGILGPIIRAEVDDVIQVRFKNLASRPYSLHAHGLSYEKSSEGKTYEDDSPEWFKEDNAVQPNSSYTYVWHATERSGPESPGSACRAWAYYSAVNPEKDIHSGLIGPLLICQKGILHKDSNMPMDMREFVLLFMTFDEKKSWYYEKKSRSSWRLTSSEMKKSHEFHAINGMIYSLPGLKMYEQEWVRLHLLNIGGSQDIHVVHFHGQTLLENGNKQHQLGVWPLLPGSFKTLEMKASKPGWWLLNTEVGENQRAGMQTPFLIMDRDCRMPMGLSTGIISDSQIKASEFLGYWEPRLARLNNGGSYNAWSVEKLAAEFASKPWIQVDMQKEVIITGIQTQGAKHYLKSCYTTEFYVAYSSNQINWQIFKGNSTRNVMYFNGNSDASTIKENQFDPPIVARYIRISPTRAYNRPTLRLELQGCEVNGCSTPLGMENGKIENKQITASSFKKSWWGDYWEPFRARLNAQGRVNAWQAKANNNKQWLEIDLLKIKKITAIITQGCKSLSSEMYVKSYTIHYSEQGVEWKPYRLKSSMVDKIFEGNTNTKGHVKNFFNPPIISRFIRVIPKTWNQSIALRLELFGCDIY

[2] = terminal phase; cited from earlier work

Chain of human Factor Xa (P00742 235-488): as the sequence (P00742 235-488) above
Chain of human Factor Xa (P00742 41-179): as the sequence (P00742 41-179) above

SMILES	water solubility [1]	pKi (human Factor Xa)	pKi (rat Factor Xa)	pKi (human thrombin)	pKi (human trypsin)	pKi (prothrombinase)	mean elimination t½ [2] [h]
O=C(NC[C@H]1CN(c2ccc(N3CCOCC3=O)cc2)C(=O)O1)c1ccc(Cl)s1 [rivaroxaban]	limited	–	–	–	–	–	–
COc1ccc(-n2nc(C(N)=O)c3c2C(=O)N(N2CCC(N4CCCCC4=O)CC2)CC3)cc1 [Example 14, 1-(4-Methoxyphenyl)-7-oxo-6-(2-oxo-[1,4′-bipiperidin]-1′-yl)-4,5,6,7-tetrahydro-1H-pyrazolo[3,4-c]pyridine-3-carboxamide]	–	≥ 8.00	6.00 to 7.30	≤ 6.00	≤ 6.00	≥ 8.00	–
COc1ccc(-n2nc(C(N)=O)c3c2C(=O)N(c2ccc(N4CCCCC4=O)cc2)CC3)cc1 [Apixaban, apixaban]	–	–	–	–	–	–	8 to 15
O=C1c2c(c(C(F)(F)F)nn2-c2ccc(OC(F)F)cc2)CCN1C1CCN(N2CCOCC2=O)CC1 [Example 23, 4-(4-(1-(4-(Difluoromethoxy)phenyl)-7-oxo-3-(trifluoromethyl)-4,5-dihydro-1H-pyrazolo[3,4-c]pyridin-6(7H)-yl)piperidin-1-yl)morpholin-3-one]	–	≥ 8.00	7.30 to 8.00	≤ 6.00	≤ 6.00	≥ 8.00	–
COc1ccc(-n2nc(C(N)=O)c3c2C(=O)N(C2CCN(N4CCOCC4=O)CC2)CC3)cc1 [Example 7, 1-(4-Methoxyphenyl)-7-oxo-6-(1-(3-oxomorpholino)piperidin-4-yl)-4,5,6,7-tetrahydro-1H-pyrazolo[3,4-c]pyridine-3-carboxamide]	–	≥ 8.00	7.30 to 8.00	≤ 6.00	≤ 6.00	≥ 8.00	–
COc1ccc(-n2nc(C(F)(F)F)c3c2C(=O)N(C2CCN(N4CCCC4=O)CC2)CC3)cc1 [Example 3, 1-(4-Methoxyphenyl)-6-(1-(2-oxopyrrolidin-1-yl)piperidin-4-yl)-3-(trifluoromethyl)-5,6-dihydro-1H-pyrazolo[3,4-c]pyridin-7(4H)-one]	–	≥ 8.00	≥ 8.00	≤ 6.00	≤ 6.00	≥ 8.00	–
COc1ccc(-n2nc(C(F)(F)F)c3c2C(=O)N(C2CCN(N4CCOCC4=O)CC2)CC3)cc1 [Example 1, 4-(4-(1-(4-Methoxyphenyl)-7-oxo-3-(trifluoromethyl)-4,5-dihydro-1H-pyrazolo[3,4-c]pyridin-6(7H)-yl)piperidin-1-yl)morpholin-3-one]	–	≥ 8.00	≥ 8.00	≤ 6.00	≤ 6.00	≥ 8.00	–
COc1ccc(-n2nc(C(N)=O)c3c2C(=O)N(C2CCN(N4CCCCC4=O)CC2)CC3)cc1 [Example 4, 1-(4-Methoxyphenyl)-7-oxo-6-(2′-oxo-[1,1′-bipiperidin]-4-yl)-4,5,6,7-tetrahydro-1H-pyrazolo[3,4-c]pyridine-3-carboxamide]	–	≥ 8.00	7.30 to 8.00	≤ 6.00	≤ 6.00	≥ 8.00	–
COc1ccc(-n2nc(/C(N)=N\C#N)c3c2C(=O)N(C2CCN(N4CCCCC4=O)CC2)CC3)cc1 [Example 6, N′-Cyano-1-(4-methoxyphenyl)-7-oxo-6-(2′-oxo-[1,1′-bipiperidin]-4-yl)-4,5,6,7-tetrahydro-1H-pyrazolo[3,4-c]pyridine-3-carboximidamide]	–	≥ 8.00	7.30 to 8.00	≤ 6.00	≤ 6.00	≥ 8.00	–
